In patent publication US5294701A, “Anthracycline compounds and intermediates” (Pharmachemie B.V., priority 1990, dated 1994):
Converted amounts (≈) assume the structure as drawn. Where a name gives a salt, the structure may show the parent alone. Read-outs that look alike come from different tables or passages of the source.

Experiments:
Format in all cases: cell-based
[1] = test system: A 204 rhabdomyosarcoma (A-cells); experiment: Inhibition of growth of human tumour cell line A 204 in vitro (PIT method of van Lambalgen and Lelieveld)
Description: (§1) A number of compounds were examined with the following human tumour cell lines according to the method of R. van Lambalgen and P. Lelieveld, "The PIT method: and automated in vitro technique for drug toxicity testing", Invest. New Drugs 5, 161-165, 1987.
A 204 rhabdomyosarcoma (A-cells)
(§2) The cell lines where maintained in a continuous logarithmic culture in Dulbeco's medium supplemented with 10% fetal calf serum, penicillin (100 IU/ml) and streptomycin (100 μg/ml).
(§3) The ID50 values of the above compounds, expressed in ng/ml, where determined according to the abovementioned method of van Lambalgen and Lelieveld. The ID50 value is the amount which inhibits 50% of the cell growth.

[2] = test system: MCF-7 mammary carcinoma cells (M-cells); experiment: Inhibition of growth of human tumour cell line MCF-7 in vitro (PIT method of van Lambalgen and Lelieveld)
Description: as §1
MCF-7 mammary carcinoma cells (M-cells)
as §2, §3

[3] = test system: IgR-37 melanoma cells (Z-cells); experiment: Inhibition of growth of human tumour cell line IgR-37 in vitro (PIT method of van Lambalgen and Lelieveld)
Description: as §1
IgR-37 melanoma cells (Z-cells)
as §2, §3

[4] = test system: T 24 bladder carcinoma cells (T-cells); experiment: Inhibition of growth of human tumour cell line T 24 in vitro (PIT method of van Lambalgen and Lelieveld)
Description: as §1
T 24 bladder carcinoma cells (T-cells)
as §2, §3

[5] = test system: WiDr colon tumour cells (W-cells); experiment: Inhibition of growth of human tumour cell line WiDr in vitro (PIT method of van Lambalgen and Lelieveld); details: read-out: ID50 values in ng/ml, WiDr (amount which inhibits 50% of the cell growth)
Description: as §1
WiDr colon tumour cells (W-cells)
as §2, §3

[6] = A204, read-out: ID50 values in ng/ml, A204 (amount which inhibits 50% of the cell growth)
[7] = MCF7, read-out: ID50 values in ng/ml, MCF-7 (amount which inhibits 50% of the cell growth)
[8] = IGR-37, read-out: ID50 values in ng/ml, IgR-37 (amount which inhibits 50% of the cell growth)
[9] = T24, read-out: ID50 values in ng/ml, T24 (amount which inhibits 50% of the cell growth)
[10] = A204, A 204 rhabdomyosarcoma cells, read-out: ID50 values in ng/ml, A204 (amount which inhibits 50% of the cell growth)
[11] = MCF7, MCF-7 mammary carcinoma cells, read-out: ID50 values in ng/ml, MCF-7 (amount which inhibits 50% of the cell growth)
[12] = IgR-37 melanoma cells, read-out: ID50 values in ng/ml, IgR-37 (amount which inhibits 50% of the cell growth)
[13] = T24, T 24 bladder carcinoma cells, read-out: ID50 values in ng/ml, T24 (amount which inhibits 50% of the cell growth)

| SMILES | IC50 [1, 6] | IC50 [2, 7] | IC50 [3, 8] | IC50 [4, 9] | IC50 ([5]; WiDr) | IC50 [1, 10] | IC50 [2, 11] | IC50 [3, 12] | IC50 [4, 13] | IC50 ([5]; WiDr colon tumour cells) |
| --- | --- | --- | --- | --- | --- | --- | --- | --- | --- | --- |
| C[C@@H]1O[C@@H](O[C@H]2C[C@](O)(C#C[Si](C)(C)C)Cc3c(O)c4c(c(O)c32)C(=O)c2ccccc2C4=O)C[C@H](NC(=O)C(F)(F)F)[C@@H]1O [HRM03] | 97 ng/mL (≈ 0.15 µM) | 151 ng/mL (≈ 0.233 µM) | 146 ng/mL (≈ 0.225 µM) | 444 ng/mL (≈ 0.686 µM) | 156 ng/mL (≈ 0.241 µM) | – | – | – | – | – |
| CC(=O)C1(O)Cc2c(O)c3c(c(O)c2C(O[C@H]2C[C@H](N)[C@H](O)[C@H](C)O2)C1)C(=O)c1cc(C)cnc1C3=O (some centres unmarked) [HRM11] | – | – | – | – | – | 45 ng/mL (≈ 0.0878 µM) | 67 ng/mL (≈ 0.131 µM) | 77 ng/mL (≈ 0.15 µM) | 173 ng/mL (≈ 0.338 µM) | 139 ng/mL (≈ 0.271 µM) |
| C#C[C@]1(O)CC2=C(C(=O)c3c(O)ccc(O)c3C2=O)[C@@H](O[C@H]2C[C@H](N)[C@H](O)[C@H](C)O2)C1 [HRM16] | – | – | – | – | – | 280 ng/mL (≈ 0.652 µM) | 338 ng/mL (≈ 0.787 µM) | 1940 ng/mL (≈ 4.51 µM) | 1260 ng/mL (≈ 2.94 µM) | 2120 ng/mL (≈ 4.93 µM) |
| CC(=O)C1(O)Cc2c(O)c3c(c(O)c2C(O[C@H]2C[C@H](N)[C@H](O)[C@H](C)O2)C1)C(=O)c1ncc(C)cc1C3=O (some centres unmarked) [HRM15] | – | – | – | – | – | 171 ng/mL (≈ 0.334 µM) | 334 ng/mL (≈ 0.652 µM) | 459 ng/mL (≈ 0.896 µM) | 949 ng/mL (≈ 1.85 µM) | 779 ng/mL (≈ 1.52 µM) |
| COc1cccc2c1C(=O)c1c(O)c3c(c(O)c1C2=O)C[C@@](O)(C(C)=O)C[C@@H]3O[C@H]1C[C@H](N)[C@H](O)[C@H](C)O1 [Daunomycin.HCl, Daunomycin, reference compound] | 1 ng/mL | 1 ng/mL | 1 ng/mL | 4 ng/mL | 3 ng/mL | – | – | – | – | – |
| CC(=O)[C@]1(O)CC2=C(C(=O)c3c(O)ccc(O)c3C2=O)[C@@H](O[C@H]2C[C@H](N)[C@H](O)[C@H](C)O2)C1 [HRM13] | – | – | – | – | – | 729 ng/mL (≈ 1.63 µM) | 542 ng/mL (≈ 1.21 µM) | 2440 ng/mL (≈ 5.46 µM) | 1050 ng/mL (≈ 2.34 µM) | 1420 ng/mL (≈ 3.18 µM) |
| CC(=O)[C@@]1(O)Cc2c(O)c3c(c(O)c2[C@H](O[C@H]2C[C@H](N)[C@H](O)[C@H](C)O2)C1)C(=O)c1ccccc1C3=O [HRM09, α-7.9-bis-epi-4-demethoxydaunomycin, reference compound] | – | – | – | – | – | 302 ng/mL (≈ 0.607 µM) | 745 ng/mL (≈ 1.5 µM) | 618 ng/mL (≈ 1.24 µM) | 1140 ng/mL (≈ 2.3 µM) | 501 ng/mL (≈ 1.01 µM) |
| C#C[C@]1(O)Cc2c(O)c3c(c(O)c2[C@@H](O[C@H]2C[C@H](NC(=O)C(F)(F)F)[C@H](O)[C@H](C)O2)C1)C(=O)c1ccccc1C3=O [HRM04] | – | – | – | – | – | 14 ng/mL (≈ 0.0243 µM) | 14 ng/mL (≈ 0.0243 µM) | 18 ng/mL (≈ 0.0313 µM) | 75 ng/mL (≈ 0.13 µM) | 43 ng/mL (≈ 0.0747 µM) |
| C#C[C@]1(O)Cc2c(O)c3c(c(O)c2[C@@H](O[C@H]2C[C@H](N)[C@H](O)[C@H](C)O2)C1)C(=O)c1c(OC)cccc1C3=O [HRM12] | – | – | – | – | – | 21 ng/mL (≈ 0.0412 µM) | 39 ng/mL (≈ 0.0765 µM) | 63 ng/mL (≈ 0.124 µM) | 140 ng/mL (≈ 0.275 µM) | 87 ng/mL (≈ 0.171 µM) |
| C#C[C@@]1(O)Cc2c(O)c3c(c(O)c2[C@H](O[C@H]2C[C@H](N)[C@H](O)[C@H](C)O2)C1)C(=O)c1ccccc1C3=O [HRM10] | – | – | – | – | – | 243 ng/mL (≈ 0.507 µM) | 420 ng/mL (≈ 0.876 µM) | 469 ng/mL (≈ 0.978 µM) | 728 ng/mL (≈ 1.52 µM) | 372 ng/mL (≈ 0.776 µM) |
| COc1cccc2c1C(=O)c1c(O)c3c(c(O)c1C2=O)C[C@@](O)(C(=O)CO)C[C@@H]3O[C@H]1C[C@H](N)[C@H](O)[C@H](C)O1 [Adramycin.HCl, Adriamycin, reference compound] | 4 ng/mL | 6 ng/mL | 6 ng/mL | 18 ng/mL | 16 ng/mL | – | – | – | – | – |
| C#C[C@]1(O)Cc2c(O)c3c(c(O)c2[C@@H](O[C@H]2C[C@H](N)[C@H](O)[C@H](C)O2)C1)C(=O)c1ccccc1C3=O [HRM01] | – | – | – | – | – | 0.3 ng/mL (≈ 0.000626 µM) | 1 ng/mL (≈ 0.00209 µM) | 2 ng/mL (≈ 0.00417 µM) | 2 ng/mL (≈ 0.00417 µM) | 4 ng/mL (≈ 0.00834 µM) |
| COc1cc([C@@H]2c3cc4c(cc3[C@@H](O[C@@H]3O[C@@H]5CO[C@@H](C)O[C@H]5[C@H](O)[C@H]3O)[C@H]3COC(=O)[C@H]23)OCO4)cc(OC)c1O [Etoposide, reference compound] | 91 ng/mL (≈ 0.155 µM) | 187 ng/mL (≈ 0.318 µM) | 427 ng/mL (≈ 0.725 µM) | 457 ng/mL (≈ 0.776 µM) | 624 ng/mL (≈ 1.06 µM) | – | – | – | – | – |
